Measurements from US10307357B2, “Prebiotic oral care compositions containing an alkyl glycoside” (COLGATE-PALMOLIVE COMPANY, priority 2013, dated 2019).

Assays:
Assay type in all cases: cell-based
Actinomyces naeslundii = experiment: Twenty-four hour optical density growth in BHI; conditions: over 24 hours, control = 1
Method: (§1) The extent of growth of the tested bacteria in response to selected glycosides (β-methyl-D-galactoside and α-methyl-D-galactoside) was investigated by setting up growth curves in a nutritionally rich medium (brain heart infusion broth (BHI), Oxoid), over 24 hours. Late exponential growth phase liquid cultures were prepared by transferring the respective bacterium from blood agar plates to BHI and overnight incubation at 37° C. in an anaerobic atmosphere for A. viscosus, V. parvula, F. nucleatum, P. gingivalis, P. intermedia, T. forsythia, A. naeslundii, and C. sputigena, and in a 5% CO2 environment for S. salivarius, S. sanguinis, S. mitis, A. actinomycetemcomitans, S. mutans, S. sobrinus and S. gordonii. Overnight cultures were transferred to BHI and adjusted to a concentration of 1×10^7 CFU/ml (colony forming units per ml) by measuring the optical density at 600 nm (OD600) (BioRad SmartSpec 3000). For each strain, 200 μl of the bacterial suspension was added to a 96-well plate containing 20 μl of the respective glycosides. Final concentrations of the glycosides were set to 5, 10, 20 and 25 μmol/ml. […] Plates were incubated as previously described. For each combination of bacterium/glycoside, and for each of their respective controls (i.e. the particular bacterium in the nutritionally rich medium with no glycoside), the optical density was measured at 630 nm (OD630) at 0 h and 24 h (Thermo Scientific Multiskan Ascent). Additionally, the OD630 for combinations of bacterium/glycosides grown in a 5% CO2 environment were also measured every hour between 0 h and 9 h. […] The experiment was carried out on three different days (thus providing 3 biological replicas) and on each day the experiment was carried out in quadruple (thus providing 4 technical replicas) for each combination of bacterium with glycoside and for each control. For each day and for each combination, the average (mean) of the values obtained (as detailed above) for the four technical replicas was calculated to provide a single value for each combination on each day. The values shown in Tables 5 to 6, below, are the average (mean) of the three single values obtained for each combination of bacterium with glycoside (α-Methyl-D-Galactoside=α-MDG; β-Methyl-D-Galactoside=β-MDG).

Capnocytophaga sputigena = experiment: Twenty-four hour optical density growth in BHI; conditions: over 24 hours, control = 1
Method: as §1

Fusobacterium nucleatum = experiment: Twenty-four hour optical density growth in BHI; conditions: over 24 hours, control = 1
Method: as §1

Porphyromonas gingivalis = experiment: Twenty-four hour optical density growth in BHI; conditions: over 24 hours, control = 1
Method: as §1

Streptococcus gordonii = experiment: Twenty-four hour optical density growth in BHI; conditions: over 24 hours, control = 1
Method: as §1

Streptococcus mitis = experiment: Twenty-four hour optical density growth in BHI; conditions: over 24 hours, control = 1
Method: as §1

Streptococcus mutans = experiment: Twenty-four hour optical density growth in BHI; conditions: over 24 hours, control = 1
Method: as §1

Streptococcus salivarius = experiment: Twenty-four hour optical density growth in BHI; conditions: over 24 hours, control = 1
Method: as §1

Streptococcus sanguinis = experiment: Twenty-four hour optical density growth in BHI; conditions: over 24 hours, control = 1
Method: as §1

Tannerella forsythia = experiment: Twenty-four hour optical density growth in BHI; conditions: over 24 hours, control = 1
Method: as §1

[1] = tested on: beneficial oral bacteria and pathogenic oral bacteria; experiment: Twenty-four hour biofilm growth, conclusion over the panel; conditions: threshold 1.6
From the text: Substrates that were able to increase the biofilm mass of at least one of the above beneficial bacteria while not or only minimally increasing the biofilm mass of the pathogenic bacteria are considered to be prebiotic compounds. The increase in biofilm formation of the tested bacteria in response to selected glycosides (β-methyl-D-galactoside and α-methyl-D-galactoside) was investigated by setting up biofilm growth assays in a nutritionally rich medium (brain heart infusion broth (BHI), Oxoid), over 24 hours. Late exponential growth phase liquid cultures were prepared by transferring the respective bacterium from blood agar plates to BHI and overnight incubation at 37° C. in an anaerobic atmosphere for A. viscosus, V. parvula, P. gingivalis, P. intermedia, T. forsythia, A. naeslundii, and C. sputigena, and in a 5% CO2 environment for S. salivarius, S. sanguinis, S. mitis, A. actinomycetemcomitans, S. mutans, and S. gordonii. […] Quantification of the stained biofilm was performed by measuring the absorbance at 630 nm using a Multiskan Ascent microplate reader (Thermo Scientific). […] For each day and for each combination, the average (mean) of the values obtained (as detailed above) for the four technical replicas was calculated to provide a single value for each combination on each day. […]

SMILES: CO[C@@H]1O[C@H](CO)[C@H](O)[C@H](O)[C@H]1O [β-methyl-D-galactoside]
- maximal OD630 divided by control (extent of growth) (Actinomyces naeslundii; 5 μmol/ml): 0.9746
- maximal OD630 divided by control (extent of growth) (Actinomyces naeslundii; 10 μmol/ml): 0.9516
- maximal OD630 divided by control (extent of growth) (Actinomyces naeslundii; 20 μmol/ml): 0.9705
- maximal OD630 divided by control (extent of growth) (Actinomyces naeslundii; 25 μmol/ml): 0.9802
- maximal OD630 divided by control (extent of growth) (Capnocytophaga sputigena; 5 μmol/ml): 0.8841
- maximal OD630 divided by control (extent of growth) (Capnocytophaga sputigena; 10 μmol/ml): 0.8633
- maximal OD630 divided by control (extent of growth) (Capnocytophaga sputigena; 20 μmol/ml): 0.8645
- maximal OD630 divided by control (extent of growth) (Capnocytophaga sputigena; 25 μmol/ml): 0.8575
- maximal OD630 divided by control (extent of growth) (Fusobacterium nucleatum; 5 μmol/ml): 0.8134
- maximal OD630 divided by control (extent of growth) (Fusobacterium nucleatum; 10 μmol/ml): 0.8181
- maximal OD630 divided by control (extent of growth) (Fusobacterium nucleatum; 20 μmol/ml): 0.8161
- maximal OD630 divided by control (extent of growth) (Fusobacterium nucleatum; 25 μmol/ml): 0.8213
- maximal OD630 divided by control (extent of growth) (Porphyromonas gingivalis; 5 μmol/ml): 0.8852
- maximal OD630 divided by control (extent of growth) (Porphyromonas gingivalis; 10 μmol/ml): 0.9738
- maximal OD630 divided by control (extent of growth) (Porphyromonas gingivalis; 20 μmol/ml): 0.9498
- maximal OD630 divided by control (extent of growth) (Porphyromonas gingivalis; 25 μmol/ml): 0.9364
- maximal OD630 divided by control (extent of growth) (Streptococcus gordonii; 5 μmol/ml): 0.9811
- maximal OD630 divided by control (extent of growth) (Streptococcus gordonii; 10 μmol/ml): 0.9760
- maximal OD630 divided by control (extent of growth) (Streptococcus gordonii; 20 μmol/ml): 0.9954
- maximal OD630 divided by control (extent of growth) (Streptococcus gordonii; 25 μmol/ml): 1.0054
- maximal OD630 divided by control (extent of growth) (Streptococcus mitis; 5 μmol/ml): 0.8435
- maximal OD630 divided by control (extent of growth) (Streptococcus mitis; 10 μmol/ml): 0.8256
- maximal OD630 divided by control (extent of growth) (Streptococcus mitis; 20 μmol/ml): 0.9114
- maximal OD630 divided by control (extent of growth) (Streptococcus mitis; 25 μmol/ml): 0.8116
- maximal OD630 divided by control (extent of growth) (Streptococcus mutans; 5 μmol/ml): 0.9473
- maximal OD630 divided by control (extent of growth) (Streptococcus mutans; 10 μmol/ml): 0.9083
- maximal OD630 divided by control (extent of growth) (Streptococcus mutans; 20 μmol/ml): 0.7929
- maximal OD630 divided by control (extent of growth) (Streptococcus mutans; 25 μmol/ml): 0.5618
- maximal OD630 divided by control (extent of growth) (Streptococcus salivarius; 5 μmol/ml): 1.2275
- maximal OD630 divided by control (extent of growth) (Streptococcus salivarius; 10 μmol/ml): 1.5208
- maximal OD630 divided by control (extent of growth) (Streptococcus salivarius; 20 μmol/ml): 1.7353
- maximal OD630 divided by control (extent of growth) (Streptococcus salivarius; 25 μmol/ml): 1.7445
- maximal OD630 divided by control (extent of growth) (Streptococcus sanguinis; 5 μmol/ml): 0.8787
- maximal OD630 divided by control (extent of growth) (Streptococcus sanguinis; 10 μmol/ml): 0.8540
- maximal OD630 divided by control (extent of growth) (Streptococcus sanguinis; 20 μmol/ml): 0.8629
- maximal OD630 divided by control (extent of growth) (Streptococcus sanguinis; 25 μmol/ml): 0.8842
- maximal OD630 divided by control (extent of growth) (Tannerella forsythia; 5 μmol/ml): 0.9652
- maximal OD630 divided by control (extent of growth) (Tannerella forsythia; 10 μmol/ml): 0.9920
- maximal OD630 divided by control (extent of growth) (Tannerella forsythia; 20 μmol/ml): 0.9847
- maximal OD630 divided by control (extent of growth) (Tannerella forsythia; 25 μmol/ml): 1.0042
- prebiotic effect (biofilm growth), in words ([1]; at concentrations of 5, 10, 20 and 25 μmol/ml): exhibited prebiotic effects

SMILES: CO[C@H]1O[C@H](CO)[C@H](O)[C@H](O)[C@H]1O [α-methyl-D-galactoside]
- maximal OD630 divided by control (extent of growth) (Actinomyces naeslundii; 5 μmol/ml): 0.9762
- maximal OD630 divided by control (extent of growth) (Actinomyces naeslundii; 10 μmol/ml): 0.9994
- maximal OD630 divided by control (extent of growth) (Actinomyces naeslundii; 20 μmol/ml): 0.9595
- maximal OD630 divided by control (extent of growth) (Actinomyces naeslundii; 25 μmol/ml): 0.9481
- maximal OD630 divided by control (extent of growth) (Capnocytophaga sputigena; 5 μmol/ml): 0.8698
- maximal OD630 divided by control (extent of growth) (Capnocytophaga sputigena; 10 μmol/ml): 0.8897
- maximal OD630 divided by control (extent of growth) (Capnocytophaga sputigena; 20 μmol/ml): 0.8728
- maximal OD630 divided by control (extent of growth) (Capnocytophaga sputigena; 25 μmol/ml): 0.8809
- maximal OD630 divided by control (extent of growth) (Fusobacterium nucleatum; 5 μmol/ml): 0.8598
- maximal OD630 divided by control (extent of growth) (Fusobacterium nucleatum; 10 μmol/ml): 0.8398
- maximal OD630 divided by control (extent of growth) (Fusobacterium nucleatum; 20 μmol/ml): 0.7917
- maximal OD630 divided by control (extent of growth) (Fusobacterium nucleatum; 25 μmol/ml): 0.7921
- maximal OD630 divided by control (extent of growth) (Porphyromonas gingivalis; 5 μmol/ml): 0.9298
- maximal OD630 divided by control (extent of growth) (Porphyromonas gingivalis; 10 μmol/ml): 0.9747
- maximal OD630 divided by control (extent of growth) (Porphyromonas gingivalis; 20 μmol/ml): 0.9132
- maximal OD630 divided by control (extent of growth) (Porphyromonas gingivalis; 25 μmol/ml): 0.9353
- maximal OD630 divided by control (extent of growth) (Streptococcus gordonii; 5 μmol/ml): 0.9997
- maximal OD630 divided by control (extent of growth) (Streptococcus gordonii; 10 μmol/ml): 0.9966
- maximal OD630 divided by control (extent of growth) (Streptococcus gordonii; 20 μmol/ml): 1.0089
- maximal OD630 divided by control (extent of growth) (Streptococcus gordonii; 25 μmol/ml): 1.0255
- maximal OD630 divided by control (extent of growth) (Streptococcus mitis; 5 μmol/ml): 0.9303
- maximal OD630 divided by control (extent of growth) (Streptococcus mitis; 10 μmol/ml): 0.9337
- maximal OD630 divided by control (extent of growth) (Streptococcus mitis; 20 μmol/ml): 0.8843
- maximal OD630 divided by control (extent of growth) (Streptococcus mitis; 25 μmol/ml): 0.8855
- maximal OD630 divided by control (extent of growth) (Streptococcus mutans; 5 μmol/ml): 0.9703
- maximal OD630 divided by control (extent of growth) (Streptococcus mutans; 10 μmol/ml): 0.9003
- maximal OD630 divided by control (extent of growth) (Streptococcus mutans; 20 μmol/ml): 0.4212
- maximal OD630 divided by control (extent of growth) (Streptococcus mutans; 25 μmol/ml): 0.2492
- maximal OD630 divided by control (extent of growth) (Streptococcus salivarius; 5 μmol/ml): 0.8965
- maximal OD630 divided by control (extent of growth) (Streptococcus salivarius; 10 μmol/ml): 0.8910
- maximal OD630 divided by control (extent of growth) (Streptococcus salivarius; 20 μmol/ml): 0.8640
- maximal OD630 divided by control (extent of growth) (Streptococcus salivarius; 25 μmol/ml): 0.8725
- maximal OD630 divided by control (extent of growth) (Streptococcus sanguinis; 5 μmol/ml): 0.9521
- maximal OD630 divided by control (extent of growth) (Streptococcus sanguinis; 10 μmol/ml): 0.9343
- maximal OD630 divided by control (extent of growth) (Streptococcus sanguinis; 20 μmol/ml): 0.8872
- maximal OD630 divided by control (extent of growth) (Streptococcus sanguinis; 25 μmol/ml): 0.9294
- maximal OD630 divided by control (extent of growth) (Tannerella forsythia; 5 μmol/ml): 0.9724
- maximal OD630 divided by control (extent of growth) (Tannerella forsythia; 10 μmol/ml): 0.9898
- maximal OD630 divided by control (extent of growth) (Tannerella forsythia; 20 μmol/ml): 0.9846
- maximal OD630 divided by control (extent of growth) (Tannerella forsythia; 25 μmol/ml): 1.0112
- prebiotic effect (biofilm growth), in words ([1]; at concentrations of 5, 10, and 20 μmol/ml): exhibited prebiotic effects
